Results reported in PubChem BioAssay (NCI).
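Compound exposure: 48 hours, 5 concentrations, 96-well plates. At the TGI there is no net growth.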

The molecules below were run on LOX IMVI melanoma (assay: NCI-60 cell line screen, 48 h).

| SMILES | TGI |
| --- | --- |
| Cc1nc(N)c(N2CCNCC2)c(=O)[nH]1 | > 100 µM |
| Brc1ccc2c(-c3nc(-c4c[nH]c5ccc(Br)cc45)cs3)c[nH]c2c1 | 5.22 µM |
| O=C1NNC(=O)C2C3c4ccccc4C(c4ccccc43)C12 (centres undefined) | > 100 µM |
| O=c1[nH]nc(-c2cccc(Br)c2)[nH]1 | > 100 µM |
| CCOC(=O)C(Cl)(NC(=O)c1ccc(F)cc1)C(F)(F)F (centres undefined) | > 100 µM |
| COc1ccccc1N1C(=O)/C(=C\c2cccc(Oc3ccccc3)c2)SC1c1ccccc1 (centres undefined) | > 100 µM |
| Cc1ccc(S(=O)(=O)OC2C3OC(C)(C)OC3OC2C(c2cc(O)c3c(c2O)C(=O)c2ccccc2C3=O)c2cc(O)c3c(c2O)C(=O)c2ccccc2C3=O)cc1 (centres undefined) | > 10 µM |
| N#Cc1nc(COCCOCc2ccccc2)oc1N | > 100 µM |
| CC1CN=C(Nc2ccc(S(N)(=O)=O)cc2)S1 (centres undefined) | > 10 µM |
| COC1(OC)C2(Cl)CCC1(Cl)C(OC(C)=O)C2 (centres undefined) | > 100 µM |
| O=P(O)(O)CN1CCN(CP(=O)(O)O)CCN(CP(=O)(O)O)CCN(CP(=O)(O)O)CC1 | > 100 µM |
| CC(C)NC(=O)OCc1c(COC(=O)NC(C)C)c(-c2ccc[n+](COC(=O)CC(C)(C)C)c2)n2c1CCC2 | > 100 µM |
| C=C(C)[C@@H](C(=O)OC)N1C(=O)c2ccccc2C1=O | > 100 µM |
| CO/N=C(\C(=O)Nc1cncs1)c1csc(NC(c2ccccc2)(c2ccccc2)c2ccccc2)n1 | > 10 µM |
| CCCN(CCCCC(NC(C)=O)C(=O)NCc1ccccc1)C(=O)N(CCCl)N=O (centres undefined) | > 100 µM |
| O=C(CNc1ccc(Cl)cc1)Nn1c(-c2ccccc2)nc2ccccc2c1=O | 4.12 µM |
| COc1cc(C2c3cc4c(cc3[C@H](OCCN(C)C)[C@@H]3COC(=O)C23)OCO4)cc(OC)c1O (some centres undefined) | 0.803 µM |
| CCCCn1c(C)c(C(=O)OCC)c2cc(OCc3ccc(C(=O)Nn4c(C)ccc4C)cc3)c(Br)cc21 | > 100 µM |
| O=C(CC(=O)N(C(=O)c1ccccc1)c1ccc(Cl)cc1)N/N=C\c1cc(N=Nc2ccccc2Cl)ccc1O | > 100 µM |
| Cc1cccc2c(N)c3cccc(C(=O)NCCCNCCN)c3nc12 | 25.2 µM |
| CN1CCC(OC(=O)Oc2ccccc2)(c2ccccc2)CC1 | 34 µM |
| CCOC(=O)/C(O)=C(/C=NC(=S)c1ccncc1)C(=O)OCC | > 100 µM |

The molecules below were run on SNB-19 CNS (assay: NCI-60 cell line screen, 48 h).

| SMILES | TGI |
| --- | --- |
| Cc1nc(N)c(N2CCNCC2)c(=O)[nH]1 | > 100 µM |
| Brc1ccc2c(-c3nc(-c4c[nH]c5ccc(Br)cc45)cs3)c[nH]c2c1 | 13 µM |
| O=C1NNC(=O)C2C3c4ccccc4C(c4ccccc43)C12 (centres undefined) | > 100 µM |
| O=c1[nH]nc(-c2cccc(Br)c2)[nH]1 | > 100 µM |
| CCOC(=O)C(Cl)(NC(=O)c1ccc(F)cc1)C(F)(F)F (centres undefined) | > 100 µM |
| COc1ccccc1N1C(=O)/C(=C\c2cccc(Oc3ccccc3)c2)SC1c1ccccc1 (centres undefined) | > 100 µM |
| Cc1ccc(S(=O)(=O)OC2C3OC(C)(C)OC3OC2C(c2cc(O)c3c(c2O)C(=O)c2ccccc2C3=O)c2cc(O)c3c(c2O)C(=O)c2ccccc2C3=O)cc1 (centres undefined) | > 10 µM |
| N#Cc1nc(COCCOCc2ccccc2)oc1N | > 100 µM |
| CC1CN=C(Nc2ccc(S(N)(=O)=O)cc2)S1 (centres undefined) | > 100 µM |
| COC1(OC)C2(Cl)CCC1(Cl)C(OC(C)=O)C2 (centres undefined) | > 100 µM |
| O=P(O)(O)CN1CCN(CP(=O)(O)O)CCN(CP(=O)(O)O)CCN(CP(=O)(O)O)CC1 | > 100 µM |
| CC(C)NC(=O)OCc1c(COC(=O)NC(C)C)c(-c2ccc[n+](COC(=O)CC(C)(C)C)c2)n2c1CCC2 | > 100 µM |
| C=C(C)[C@@H](C(=O)OC)N1C(=O)c2ccccc2C1=O | > 100 µM |
| CO/N=C(\C(=O)Nc1cncs1)c1csc(NC(c2ccccc2)(c2ccccc2)c2ccccc2)n1 | > 10 µM |
| CCCN(CCCCC(NC(C)=O)C(=O)NCc1ccccc1)C(=O)N(CCCl)N=O (centres undefined) | > 100 µM |
| O=C(CNc1ccc(Cl)cc1)Nn1c(-c2ccccc2)nc2ccccc2c1=O | 24.5 µM |
| COc1cc(C2c3cc4c(cc3[C@H](OCCN(C)C)[C@@H]3COC(=O)C23)OCO4)cc(OC)c1O (some centres undefined) | 5.98 µM |
| CCCCn1c(C)c(C(=O)OCC)c2cc(OCc3ccc(C(=O)Nn4c(C)ccc4C)cc3)c(Br)cc21 | > 100 µM |
| O=C(CC(=O)N(C(=O)c1ccccc1)c1ccc(Cl)cc1)N/N=C\c1cc(N=Nc2ccccc2Cl)ccc1O | 94.2 µM |
| Cc1cccc2c(N)c3cccc(C(=O)NCCCNCCN)c3nc12 | 15 µM |
| CN1CCC(OC(=O)Oc2ccccc2)(c2ccccc2)CC1 | 69.2 µM |
| CCOC(=O)/C(O)=C(/C=NC(=S)c1ccncc1)C(=O)OCC | 97 µM |

What follows are molecules tested on M14 melanoma (assay: NCI-60 cell line screen, 48 h).

| SMILES | TGI |
| --- | --- |
| Cc1nc(N)c(N2CCNCC2)c(=O)[nH]1 | > 100 µM |
| Brc1ccc2c(-c3nc(-c4c[nH]c5ccc(Br)cc45)cs3)c[nH]c2c1 | 13.8 µM |
| O=C1NNC(=O)C2C3c4ccccc4C(c4ccccc43)C12 (centres undefined) | > 100 µM |
| O=c1[nH]nc(-c2cccc(Br)c2)[nH]1 | > 100 µM |
| CCOC(=O)C(Cl)(NC(=O)c1ccc(F)cc1)C(F)(F)F (centres undefined) | > 100 µM |
| COc1ccccc1N1C(=O)/C(=C\c2cccc(Oc3ccccc3)c2)SC1c1ccccc1 (centres undefined) | > 100 µM |
| Cc1ccc(S(=O)(=O)OC2C3OC(C)(C)OC3OC2C(c2cc(O)c3c(c2O)C(=O)c2ccccc2C3=O)c2cc(O)c3c(c2O)C(=O)c2ccccc2C3=O)cc1 (centres undefined) | > 10 µM |
| N#Cc1nc(COCCOCc2ccccc2)oc1N | > 100 µM |
| CC1CN=C(Nc2ccc(S(N)(=O)=O)cc2)S1 (centres undefined) | > 100 µM |
| COC1(OC)C2(Cl)CCC1(Cl)C(OC(C)=O)C2 (centres undefined) | > 100 µM |
| O=P(O)(O)CN1CCN(CP(=O)(O)O)CCN(CP(=O)(O)O)CCN(CP(=O)(O)O)CC1 | > 100 µM |
| CC(C)NC(=O)OCc1c(COC(=O)NC(C)C)c(-c2ccc[n+](COC(=O)CC(C)(C)C)c2)n2c1CCC2 | > 100 µM |
| C=C(C)[C@@H](C(=O)OC)N1C(=O)c2ccccc2C1=O | > 100 µM |
| CO/N=C(\C(=O)Nc1cncs1)c1csc(NC(c2ccccc2)(c2ccccc2)c2ccccc2)n1 | > 10 µM |
| CCCN(CCCCC(NC(C)=O)C(=O)NCc1ccccc1)C(=O)N(CCCl)N=O (centres undefined) | > 100 µM |
| O=C(CNc1ccc(Cl)cc1)Nn1c(-c2ccccc2)nc2ccccc2c1=O | 20.3 µM |
| COc1cc(C2c3cc4c(cc3[C@H](OCCN(C)C)[C@@H]3COC(=O)C23)OCO4)cc(OC)c1O (some centres undefined) | 2.58 µM |
| CCCCn1c(C)c(C(=O)OCC)c2cc(OCc3ccc(C(=O)Nn4c(C)ccc4C)cc3)c(Br)cc21 | > 100 µM |
| O=C(CC(=O)N(C(=O)c1ccccc1)c1ccc(Cl)cc1)N/N=C\c1cc(N=Nc2ccccc2Cl)ccc1O | > 100 µM |
| Cc1cccc2c(N)c3cccc(C(=O)NCCCNCCN)c3nc12 | 28.4 µM |
| CN1CCC(OC(=O)Oc2ccccc2)(c2ccccc2)CC1 | 28.2 µM |
| CCOC(=O)/C(O)=C(/C=NC(=S)c1ccncc1)C(=O)OCC | > 100 µM |

Each molecule was assayed on MDA-N (assay: NCI-60 cell line screen, 48 h).

| SMILES | TGI |
| --- | --- |
| Cc1nc(N)c(N2CCNCC2)c(=O)[nH]1 | > 100 µM |
| Brc1ccc2c(-c3nc(-c4c[nH]c5ccc(Br)cc45)cs3)c[nH]c2c1 | 16.4 µM |
| O=C1NNC(=O)C2C3c4ccccc4C(c4ccccc43)C12 (centres undefined) | > 100 µM |
| O=c1[nH]nc(-c2cccc(Br)c2)[nH]1 | > 100 µM |
| CCOC(=O)C(Cl)(NC(=O)c1ccc(F)cc1)C(F)(F)F (centres undefined) | > 100 µM |
| COc1ccccc1N1C(=O)/C(=C\c2cccc(Oc3ccccc3)c2)SC1c1ccccc1 (centres undefined) | 64.6 µM |
| Cc1ccc(S(=O)(=O)OC2C3OC(C)(C)OC3OC2C(c2cc(O)c3c(c2O)C(=O)c2ccccc2C3=O)c2cc(O)c3c(c2O)C(=O)c2ccccc2C3=O)cc1 (centres undefined) | > 10 µM |
| N#Cc1nc(COCCOCc2ccccc2)oc1N | > 100 µM |
| CC1CN=C(Nc2ccc(S(N)(=O)=O)cc2)S1 (centres undefined) | > 10 µM |
| COC1(OC)C2(Cl)CCC1(Cl)C(OC(C)=O)C2 (centres undefined) | > 100 µM |
| O=P(O)(O)CN1CCN(CP(=O)(O)O)CCN(CP(=O)(O)O)CCN(CP(=O)(O)O)CC1 | > 100 µM |
| CC(C)NC(=O)OCc1c(COC(=O)NC(C)C)c(-c2ccc[n+](COC(=O)CC(C)(C)C)c2)n2c1CCC2 | > 100 µM |
| C=C(C)[C@@H](C(=O)OC)N1C(=O)c2ccccc2C1=O | > 100 µM |
| CO/N=C(\C(=O)Nc1cncs1)c1csc(NC(c2ccccc2)(c2ccccc2)c2ccccc2)n1 | > 10 µM |
| CCCN(CCCCC(NC(C)=O)C(=O)NCc1ccccc1)C(=O)N(CCCl)N=O (centres undefined) | > 100 µM |
| O=C(CNc1ccc(Cl)cc1)Nn1c(-c2ccccc2)nc2ccccc2c1=O | 22.5 µM |
| COc1cc(C2c3cc4c(cc3[C@H](OCCN(C)C)[C@@H]3COC(=O)C23)OCO4)cc(OC)c1O (some centres undefined) | 30 µM |
| CCCCn1c(C)c(C(=O)OCC)c2cc(OCc3ccc(C(=O)Nn4c(C)ccc4C)cc3)c(Br)cc21 | > 100 µM |
| O=C(CC(=O)N(C(=O)c1ccccc1)c1ccc(Cl)cc1)N/N=C\c1cc(N=Nc2ccccc2Cl)ccc1O | > 100 µM |
| Cc1cccc2c(N)c3cccc(C(=O)NCCCNCCN)c3nc12 | 27 µM |
| CN1CCC(OC(=O)Oc2ccccc2)(c2ccccc2)CC1 | 34.9 µM |
| CCOC(=O)/C(O)=C(/C=NC(=S)c1ccncc1)C(=O)OCC | > 100 µM |

What follows are molecules tested on SNB-75 CNS (assay: NCI-60 cell line screen, 48 h).

| SMILES | TGI |
| --- | --- |
| Cc1nc(N)c(N2CCNCC2)c(=O)[nH]1 | > 100 µM |
| Brc1ccc2c(-c3nc(-c4c[nH]c5ccc(Br)cc45)cs3)c[nH]c2c1 | 31.4 µM |
| O=C1NNC(=O)C2C3c4ccccc4C(c4ccccc43)C12 (centres undefined) | > 100 µM |
| O=c1[nH]nc(-c2cccc(Br)c2)[nH]1 | > 100 µM |
| CCOC(=O)C(Cl)(NC(=O)c1ccc(F)cc1)C(F)(F)F (centres undefined) | > 100 µM |
| COc1ccccc1N1C(=O)/C(=C\c2cccc(Oc3ccccc3)c2)SC1c1ccccc1 (centres undefined) | > 100 µM |
| Cc1ccc(S(=O)(=O)OC2C3OC(C)(C)OC3OC2C(c2cc(O)c3c(c2O)C(=O)c2ccccc2C3=O)c2cc(O)c3c(c2O)C(=O)c2ccccc2C3=O)cc1 (centres undefined) | > 10 µM |
| N#Cc1nc(COCCOCc2ccccc2)oc1N | > 100 µM |
| CC1CN=C(Nc2ccc(S(N)(=O)=O)cc2)S1 (centres undefined) | > 100 µM |
| COC1(OC)C2(Cl)CCC1(Cl)C(OC(C)=O)C2 (centres undefined) | > 100 µM |
| O=P(O)(O)CN1CCN(CP(=O)(O)O)CCN(CP(=O)(O)O)CCN(CP(=O)(O)O)CC1 | > 100 µM |
